Measurements taken from patent US20260297085A1, “1 H-PYRROLO[2,3-B]PYRIDIN-4-YL]-2-OXOPYRROLIDINE-3-CARBONITRILE DERIVATIVES AS TYROSINE KINASE 2 (TYK2) INHIBITORS FOR THE TREATMENT OF INFLAMMATORY DISEASES” (BIOGEN MA INC., priority 2023, published 2026).
Structures can show the parent of a compound that is named as a salt.

Assays:
Conditions in all cases: JH1 kinase domain, ADP-Glo
[1] = target: T1, human TYK2 kinase domain (JH1) (Homo sapiens, UniProt P29597); assay: JH1 biochemical assay for TYK2 (ADP-Glo kinase assay, recombinant JH1 catalytic domain, JAK3-974 peptide, 10 μM ATP)
T1 construct: recombinantly generated catalytic kinase (also known as JH1) domain of human JAK1, JAK2, JAK3 and TYK2
T1 sequence (P29597 897-1176 limits assumed): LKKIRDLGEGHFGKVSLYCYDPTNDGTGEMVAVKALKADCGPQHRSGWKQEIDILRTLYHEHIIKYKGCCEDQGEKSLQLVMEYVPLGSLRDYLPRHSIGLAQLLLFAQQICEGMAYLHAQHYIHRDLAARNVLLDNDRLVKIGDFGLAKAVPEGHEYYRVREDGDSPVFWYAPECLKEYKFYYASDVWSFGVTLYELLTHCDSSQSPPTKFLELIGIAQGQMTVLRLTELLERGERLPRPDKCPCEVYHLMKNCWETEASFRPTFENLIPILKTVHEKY
Method in brief: (§1)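 Luminescent ADP read-out after residual ATP depletion, 100 min reaction. Kinase domain concentrations were 4 nM (JAK1), 0.2 nM (JAK2), 0.3 nM (JAK3) and 2 nM (TYK2), each with 50 μM peptide. IC50 values came from 4-parameter logistic fits over 11 points, 3-fold steps, top 10 μM or 1 μM.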

[2] = target: T2, human JAK1 kinase domain (JH1) (Homo sapiens, UniProt P23458); assay: JH1 biochemical assay for JAK1 (ADP-Glo kinase assay, recombinant JH1 catalytic domain, JAK3-342 peptide, 35 μM ATP)
T2 construct: recombinantly generated catalytic kinase (also known as JH1) domain of human JAK1, JAK2, JAK3 and TYK2
Method in brief: as §1

[3] = target: T3, human JAK2 kinase domain (JH1) (Homo sapiens, UniProt O60674); assay: JH1 biochemical assay for JAK2 (ADP-Glo kinase assay, recombinant JH1 catalytic domain, JAK3-974 peptide, 15 μM ATP)
T3 construct: recombinantly generated catalytic kinase (also known as JH1) domain of human JAK1, JAK2, JAK3 and TYK2
Method in brief: as §1

[4] = target: T4, human JAK3 kinase domain (JH1) (Homo sapiens, UniProt P52333); assay: JH1 biochemical assay for JAK3 (ADP-Glo kinase assay, recombinant JH1 catalytic domain, JAK3-974 peptide, 4 μM ATP)
T4 construct: recombinantly generated catalytic kinase (also known as JH1) domain of human JAK1, JAK2, JAK3 and TYK2
Method in brief: as §1

T2 sequence (P23458 875-1153 limits assumed): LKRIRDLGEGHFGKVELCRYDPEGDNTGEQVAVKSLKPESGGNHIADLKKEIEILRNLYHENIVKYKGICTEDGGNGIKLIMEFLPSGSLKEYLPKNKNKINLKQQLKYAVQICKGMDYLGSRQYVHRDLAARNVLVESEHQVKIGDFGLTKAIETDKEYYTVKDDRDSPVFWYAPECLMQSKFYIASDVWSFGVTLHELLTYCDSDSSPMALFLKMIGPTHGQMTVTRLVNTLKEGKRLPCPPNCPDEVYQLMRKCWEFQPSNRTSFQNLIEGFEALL
T3 sequence (O60674 849-1124 limits assumed): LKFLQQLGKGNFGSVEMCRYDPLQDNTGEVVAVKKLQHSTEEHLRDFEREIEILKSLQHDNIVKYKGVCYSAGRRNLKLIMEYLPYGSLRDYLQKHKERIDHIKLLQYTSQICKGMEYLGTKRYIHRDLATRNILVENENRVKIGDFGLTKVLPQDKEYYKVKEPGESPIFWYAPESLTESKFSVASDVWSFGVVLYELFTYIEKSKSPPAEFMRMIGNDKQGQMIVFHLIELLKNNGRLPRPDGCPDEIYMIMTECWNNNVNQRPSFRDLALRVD
T4 sequence (P52333 822-1111 limits assumed): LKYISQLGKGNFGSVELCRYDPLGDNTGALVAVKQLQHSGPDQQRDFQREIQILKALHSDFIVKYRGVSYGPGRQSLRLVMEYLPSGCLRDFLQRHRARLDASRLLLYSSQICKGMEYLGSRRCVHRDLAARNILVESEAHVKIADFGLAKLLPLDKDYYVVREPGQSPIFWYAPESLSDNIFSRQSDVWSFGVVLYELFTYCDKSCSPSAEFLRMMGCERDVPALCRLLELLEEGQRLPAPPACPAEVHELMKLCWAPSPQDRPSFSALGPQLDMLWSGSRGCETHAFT

IC50 [1] [nM] | IC50 [2] [nM] | IC50 [3] [nM] | IC50 [4] [nM] | SMILES
> 100 | > 10000 | > 10000 | > 10000 | C[C@@H]1CN(c2ccnn3cc(-c4nccn5ccnc45)cc23)C(=O)[C@]1(C#N)C1CC1 [Example 123, (3R,4S)-3-cyclopropyl-1-(6-(imidazo[1,2-a]pyrazin-8-yl)pyrrolo[1,2-b]pyridazin-4-yl)-4-methyl-2-oxopyrrolidine-3-carbonitrile trifluoroacetate]
20 to 50 | 100 to 1000 | 100 to 1000 | 100 to 1000 | C[C@@H]1CN(c2ccnn3cc(-c4cccc(CC#N)n4)cc23)C(=O)[C@]1(C#N)C1CC1 [Example 125, (3R,4S)-1-(6-(6-(cyanomethyl)pyridin-2-yl)pyrrolo[1,2-b]pyridazin-4-yl)-3-cyclopropyl-4-methyl-2-oxopyrrolidine-3-carbonitrile trifluoroacetate]
20 to 50 | 100 to 1000 | 100 to 1000 | 100 to 1000 | COc1cncc(-c2cc3c(N4C[C@@H](C)[C@@](C#N)(C5CC5)C4=O)ccnn3c2)n1 [Example 126, (3R,4S)-3-cyclopropyl-1-(6-(6-methoxypyrazin-2-yl)pyrrolo[1,2-b]pyridazin-4-yl)-4-methyl-2-oxopyrrolidine-3-carbonitrile trifluoroacetate]
> 100 | > 10000 | > 10000 | > 10000 | C[C@@H]1CN(c2ccnn3cc(-c4nccc(O)c4C#N)cc23)C(=O)[C@]1(C#N)C1CC1 [Example 129, 2-(4-((3R,4S)-3-cyano-3-cyclopropyl-4-methyl-2-oxopyrrolidin-1-yl)pyrrolo[1,2-b]pyridazin-6-yl)-4-hydroxynicotinonitrile trifluoroacetate]
5 to 20 | 100 to 1000 | 100 to 1000 | 100 to 1000 | CC(O)c1ccc(-c2cc3c(N4C[C@@H](C)[C@@](C#N)(C5CC5)C4=O)ccnn3c2)nc1 (stereo partly drawn) [Example 130, (3R,4S)-3-cyclopropyl-1-(6-(5-(1-hydroxyethyl)pyridin-2-yl)pyrrolo[1,2-b]pyridazin-4-yl)-4-methyl-2-oxopyrrolidine-3-carbonitrile trifluoroacetate]
50 to 100 | 1000 to 5000 | 1000 to 5000 | 1000 to 5000 | COc1cnc(-c2cc3c(N4C[C@@H](C)[C@@](C#N)(C5CC5)C4=O)ccnn3c2)cn1 [Example 132, (3R,4S)-3-cyclopropyl-1-(6-(5-methoxypyrazin-2-yl)pyrrolo[1,2-b]pyridazin-4-yl)-4-methyl-2-oxopyrrolidine-3-carbonitrile trifluoroacetate]
20 to 50 | 1000 to 5000 | 1000 to 5000 | 1000 to 5000 | C[C@@H]1CN(c2ccnn3cc(-c4cncc(C#N)n4)cc23)C(=O)[C@]1(C#N)C1CC1 [Example 133, 6-(4-((3R,4S)-3-cyano-3-cyclopropyl-4-methyl-2-oxopyrrolidin-1-yl)pyrrolo[1,2-b]pyridazin-6-yl)pyrazine-2-carbonitrile trifluoroacetate]
50 to 100 | 1000 to 5000 | 5000 to 10000 | 1000 to 5000 | COc1cnc(-c2cc3c(N4C[C@@H](C)[C@@](C#N)(C5CC5)C4=O)ccnn3c2)nc1 [Example 136, (3R,4S)-3-cyclopropyl-1-(6-(5-methoxypyrimidin-2-yl)pyrrolo[1,2-b]pyridazin-4-yl)-4-methyl-2-oxopyrrolidine-3-carbonitrile trifluoroacetate]
20 to 50 | 1000 to 5000 | 100 to 1000 | 100 to 1000 | Cc1ccc(-c2cc3c(N4C[C@@H](C)[C@@](C#N)(C5CC5)C4=O)ccnn3c2)nn1 [Example 137, (3R,4S)-3-cyclopropyl-4-methyl-1-(6-(6-methylpyridazin-3-yl)pyrrolo[1,2-b]pyridazin-4-yl)-2-oxopyrrolidine-3-carbonitrile trifluoroacetate]
20 to 50 | 100 to 1000 | > 10000 | 1000 to 5000 | C[C@@H]1CN(c2ccnn3cc(-c4ncccc4F)cc23)C(=O)[C@]1(C#N)C1CC1 [Example 138, (3R,4S)-3-cyclopropyl-1-(6-(3-fluoropyridin-2-yl)pyrrolo[1,2-b]pyridazin-4-yl)-4-methyl-2-oxopyrrolidine-3-carbonitrile trifluoroacetate]
> 100 | 1000 to 5000 | > 10000 | 1000 to 5000 | C[C@@H]1CN(c2ccnn3cc(-c4ncccn4)cc23)C(=O)[C@]1(C#N)C1CC1 [Example 139, ((3R,4S)-3-cyclopropyl-4-methyl-2-oxo-1-(6-(pyrimidin-2-yl)pyrrolo[1,2-b]pyridazin-4-yl)pyrrolidine-3-carbonitrile trifluoroacetate]
50 to 100 | 1000 to 5000 | > 10000 | 5000 to 10000 | Cc1ccc(O)c(-c2cc3c(N4C[C@@H](C)[C@@](C#N)(C5CC5)C4=O)ccnn3c2)n1 [Example 140, (3R,4S)-3-cyclopropyl-1-(6-(3-hydroxy-6-methylpyridin-2-yl)pyrrolo[1,2-b]pyridazin-4-yl)-4-methyl-2-oxopyrrolidine-3-carbonitrile trifluoroacetate]
20 to 50 | 1000 to 5000 | 1000 to 5000 | 1000 to 5000 | C[C@@H]1CN(c2ccnn3cc(-c4cccc5nccn45)cc23)C(=O)[C@]1(C#N)C1CC1 [Example 141, (3R,4S)-3-cyclopropyl-1-(6-(imidazo[1,2-a]pyridin-5-yl)pyrrolo[1,2-b]pyridazin-4-yl)-4-methyl-2-oxopyrrolidine-3-carbonitrile trifluoroacetate]
20 to 50 | 1000 to 5000 | 1000 to 5000 | 1000 to 5000 | Cc1cc(-c2cc3c(N4C[C@@H](C)[C@@](C#N)(C5CC5)C4=O)ccnn3c2)ncc1F [Example 142, (3R,4S)-3-cyclopropyl-1-(6-(5-fluoro-4-methylpyridin-2-yl)pyrrolo[1,2-b]pyridazin-4-yl)-4-methyl-2-oxopyrrolidine-3-carbonitrile trifluoroacetate]
20 to 50 | 100 to 1000 | 1000 to 5000 | 100 to 1000 | COc1cccc(-c2cc3c(N4C[C@@H](C)[C@@](C#N)(C5CC5)C4=O)ccnn3c2)n1 [Example 143, (3R,4S)-3-cyclopropyl-1-(6-(6-methoxypyridin-2-yl)pyrrolo[1,2-b]pyridazin-4-yl)-4-methyl-2-oxopyrrolidine-3-carbonitrile trifluoroacetate]
20 to 50 | 1000 to 5000 | 1000 to 5000 | 1000 to 5000 | Cc1cc(-c2cc3c(N4C[C@@H](C)[C@@](C#N)(C5CC5)C4=O)ccnn3c2)ncc1C#N [Example 144, 6-(4-((3R,4S)-3-cyano-3-cyclopropyl-4-methyl-2-oxopyrrolidin-1-yl)pyrrolo[1,2-b]pyridazin-6-yl)-4-methylnicotinonitrile trifluoroacetate]
> 100 | 1000 to 5000 | 5000 to 10000 | 5000 to 10000 | COc1cccnc1-c1cc2c(N3C[C@@H](C)[C@@](C#N)(C4CC4)C3=O)ccnn2c1 [Example 146, (3R,4S)-3-cyclopropyl-1-(6-(3-methoxypyridin-2-yl)pyrrolo[1,2-b]pyridazin-4-yl)-4-methyl-2-oxopyrrolidine-3-carbonitrile trifluoroacetate]
